Measurements from ChEMBL document CHEMBL5376010, “Formation of Trideuteromethylated Artifacts of Pyrrole-Containing Natural Products” (J Nat Prod, 2024).
One block for each compound: values may come before it. Calls of active or inactive are those of the source. The rule behind the calls is not given here.

How the values were obtained:
Homo sapiens [1] = species on record: Homo sapiens; assay: Selectivity ratio of IC50 for human HaCaT cells to IC50 for human WaGa cells; conditions: tested as the 2H-labelled form
[2] = tested on: Panel NCI-60 (60 carcinoma cell lines); assay: Anticancer activity against human Panel NCI-60 (60 carcinoma cell lines) assessed as growth inhibition; assay type: functional
Homo sapiens [3] = species on record: Homo sapiens; assay: Selectivity ratio of IC50 for human HaCaT cells to IC50 for human MKL-1 cells; conditions: tested as the 2H-labelled form
Homo sapiens [4] = species on record: Homo sapiens; assay: Selectivity ratio of IC50 for human HaCaT cells to IC50 for human UISO cells; conditions: tested as the 2H-labelled form
Homo sapiens [5] = species on record: Homo sapiens; assay: Selectivity ratio of IC50 for human HaCaT cells to IC50 for human MCC13 cells; conditions: tested as the 2H-labelled form
Homo sapiens [6] = species on record: Homo sapiens; assay: Selectivity ratio of IC50 for human HaCaT cells to IC50 for human MCC26 cells; conditions: tested as the 2H-labelled form
[7] = tested on: Panel NCI-60 (60 carcinoma cell lines); assay: Anticancer activity against human Panel NCI-60 (60 carcinoma cell lines) assessed as cell growth inhibition at 10 uM; assay type: functional, cell-based
[8] = Anticancer activity against human MKL-1 cells assessed as inhibition of cell growth; assay type: functional, cell-based
[9] = Anticancer activity against human WaGa cells assessed as inhibition of cell growth; assay type: functional, cell-based
[10] = Anticancer activity against human UISO cells assessed as inhibition of cell growth; assay type: functional, cell-based
[11] = Cytotoxicity against human HaCaT cells assessed as inhibition of cell growth; assay type: toxicity, cell-based
[12] = Anticancer activity against human MCC26 cells assessed as inhibition of cell growth; assay type: functional, cell-based
[13] = Anticancer activity against human MCC13 cells assessed as inhibition of cell growth; assay type: functional, cell-based

Ratio IC50 (Homo sapiens [1]): 13
Ratio IC50 (Homo sapiens [3]): 13
Ratio IC50 (Homo sapiens [4]): 3
Ratio IC50 (Homo sapiens [5]): 3
Ratio IC50 (Homo sapiens [6]): 3
SMILES: Cc1[nH]c2c3c1CC[N+]1=C3C3=C(N[C@@H]4C[C@@]35C(=CC(=O)[C@@H]1[C@@H]5O)S4)C2=O
GI50 [2]: 5.75 µM

SMILES: Cn1cnc(S[C@H]2[C@H]3C(=O)C=C4S[C@H]5C[C@]42C2=C(N5)C(=O)c4[nH]cc5c4C2=[N+]3CC5)c1C[C@H](N)C(=O)O
Activity [7]: inactive

SMILES: Cc1[nH]c2c3c1CC[N+]1=C3C3=C(N[C@@H]4C[C@@]35C(=CC(=O)[C@@H]1[C@@H]5Sc1ncn(C)c1C[C@H](N)C(=O)O)S4)C2=O
Activity ([7]; tested as the 2H-labelled form): inactive

SMILES: O=C([O-])C(F)(F)F.[2H]C([2H])([2H])c1[nH]c2c3c1CC[N+]1=C3C3=C(N[C@@H]4C[C@@]35C(=CC(=O)[C@@H]1[C@@H]5O)S4)C2=O
GI50 [2]: 1.65 µM
IC50 [8]: 0.25 µM
IC50 [9]: 0.72 µM
IC50 [10]: 1.41 µM
IC50 [11]: 6.2 µM
IC50 [12]: 1.99 µM
IC50 [13]: 2.5 µM

SMILES: O=C1C(Br)=CC2(C=C1Br)CCNC1=C2C2=NCCc3c[nH]c(c32)C1=O [DISCORHABDIN C]
GI50 [2]: 0.13 µM

SMILES: O=C1C2=C3C4=[N+](CCc5c[nH]c1c54)[C@@H]1C(=O)C=C4S[C@@H](C[C@@]43[C@H]1O)N2 [DISCORHABDIN L]
GI50 [2]: 0.79 µM

SMILES: O=C1C(Br)=CC2(C=C1Br)CCNC1=C2C2=NCCc3c(Br)[nH]c(c32)C1=O
GI50 [2]: 0.42 µM
